Experimental data published in ChEMBL document CHEMBL5291721, “A preclinical secondary pharmacology resource illuminates target-adverse drug reaction associations of marketed drugs” (Nat Commun, 2023).

Key:
[1] = molecular target: T1, Muscarinic acetylcholine receptor M2 (Homo sapiens, UniProt P08172)
T1 sequence (P08172 whole entry): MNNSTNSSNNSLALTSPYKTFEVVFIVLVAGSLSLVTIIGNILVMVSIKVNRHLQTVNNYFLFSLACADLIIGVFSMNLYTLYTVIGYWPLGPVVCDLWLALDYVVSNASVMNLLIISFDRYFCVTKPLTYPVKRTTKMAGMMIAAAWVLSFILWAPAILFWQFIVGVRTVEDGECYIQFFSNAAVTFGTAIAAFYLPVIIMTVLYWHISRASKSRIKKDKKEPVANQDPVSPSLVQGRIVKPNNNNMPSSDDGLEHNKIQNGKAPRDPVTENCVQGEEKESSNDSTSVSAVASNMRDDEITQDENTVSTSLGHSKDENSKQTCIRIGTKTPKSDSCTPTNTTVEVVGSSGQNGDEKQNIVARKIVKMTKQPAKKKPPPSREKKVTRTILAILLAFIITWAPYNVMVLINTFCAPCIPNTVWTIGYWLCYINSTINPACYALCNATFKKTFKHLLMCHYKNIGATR

[2] = molecular target: T2, Gamma-aminobutyric acid receptor subunit alpha-1/alpha-2/beta-2/gamma-2 (Homo sapiens, UniProt P14867+P18507+P47869+P47870); assay type: functional, cell-based
[3] = molecular target: Sodium channel protein type 5 subunit alpha (Homo sapiens, UniProt Q14524); assay type: functional, cell-based
Sodium channel protein type 5 subunit alpha, sequence (Q14524 whole entry): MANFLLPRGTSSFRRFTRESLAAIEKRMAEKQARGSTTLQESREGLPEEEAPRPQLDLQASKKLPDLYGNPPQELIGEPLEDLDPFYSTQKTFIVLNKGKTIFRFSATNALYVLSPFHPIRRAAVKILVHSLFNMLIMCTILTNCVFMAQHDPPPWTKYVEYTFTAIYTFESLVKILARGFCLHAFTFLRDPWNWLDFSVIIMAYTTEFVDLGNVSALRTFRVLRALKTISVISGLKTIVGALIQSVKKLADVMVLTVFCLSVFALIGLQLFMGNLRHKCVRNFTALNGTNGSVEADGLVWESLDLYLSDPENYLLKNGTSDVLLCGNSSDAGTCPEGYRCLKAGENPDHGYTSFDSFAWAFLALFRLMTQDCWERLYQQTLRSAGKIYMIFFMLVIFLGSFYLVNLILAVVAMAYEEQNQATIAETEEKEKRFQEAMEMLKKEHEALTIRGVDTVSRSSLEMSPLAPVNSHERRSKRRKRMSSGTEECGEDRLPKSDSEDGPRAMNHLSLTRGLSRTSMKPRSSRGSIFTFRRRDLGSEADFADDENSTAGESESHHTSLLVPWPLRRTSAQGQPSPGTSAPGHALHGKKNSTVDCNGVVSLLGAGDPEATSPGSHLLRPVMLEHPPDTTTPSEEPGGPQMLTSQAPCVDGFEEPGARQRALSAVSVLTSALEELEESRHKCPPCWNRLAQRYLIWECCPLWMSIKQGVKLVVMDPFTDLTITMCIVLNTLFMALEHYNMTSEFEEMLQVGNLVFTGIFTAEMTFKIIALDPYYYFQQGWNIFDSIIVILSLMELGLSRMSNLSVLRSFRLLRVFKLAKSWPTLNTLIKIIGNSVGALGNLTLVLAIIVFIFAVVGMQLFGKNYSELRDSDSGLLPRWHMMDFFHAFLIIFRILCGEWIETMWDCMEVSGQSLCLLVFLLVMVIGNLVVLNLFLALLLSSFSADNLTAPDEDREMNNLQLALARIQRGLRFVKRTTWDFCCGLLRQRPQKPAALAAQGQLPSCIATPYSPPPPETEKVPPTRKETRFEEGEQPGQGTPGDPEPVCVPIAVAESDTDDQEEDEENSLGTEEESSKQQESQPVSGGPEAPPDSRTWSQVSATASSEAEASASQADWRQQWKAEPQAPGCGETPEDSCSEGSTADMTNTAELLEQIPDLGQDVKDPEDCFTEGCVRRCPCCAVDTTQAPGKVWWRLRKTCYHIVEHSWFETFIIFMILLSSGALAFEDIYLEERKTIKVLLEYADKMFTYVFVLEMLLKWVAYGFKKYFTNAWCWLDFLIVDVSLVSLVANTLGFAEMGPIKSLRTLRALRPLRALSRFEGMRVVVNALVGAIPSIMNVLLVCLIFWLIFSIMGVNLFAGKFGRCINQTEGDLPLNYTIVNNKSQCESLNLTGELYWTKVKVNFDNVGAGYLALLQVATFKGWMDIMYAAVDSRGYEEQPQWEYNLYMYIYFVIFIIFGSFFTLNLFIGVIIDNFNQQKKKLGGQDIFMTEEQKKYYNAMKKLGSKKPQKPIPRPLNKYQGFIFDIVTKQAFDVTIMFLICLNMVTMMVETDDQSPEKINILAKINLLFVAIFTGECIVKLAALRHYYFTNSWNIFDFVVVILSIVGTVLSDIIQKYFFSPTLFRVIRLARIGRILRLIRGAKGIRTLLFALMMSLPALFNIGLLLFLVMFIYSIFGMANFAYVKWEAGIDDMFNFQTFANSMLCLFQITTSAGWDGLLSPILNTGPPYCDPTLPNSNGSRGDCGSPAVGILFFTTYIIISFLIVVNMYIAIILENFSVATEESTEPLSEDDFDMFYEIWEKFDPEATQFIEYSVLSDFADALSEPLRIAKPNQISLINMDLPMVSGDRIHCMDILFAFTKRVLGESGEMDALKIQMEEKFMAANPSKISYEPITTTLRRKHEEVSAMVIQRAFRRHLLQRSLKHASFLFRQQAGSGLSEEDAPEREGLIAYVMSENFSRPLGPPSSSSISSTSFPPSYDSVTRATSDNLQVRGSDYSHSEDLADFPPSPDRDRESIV

[4] = molecular target: T2, Gamma-aminobutyric acid receptor subunit alpha-1/alpha-2/beta-2/gamma-2; assay type: functional, cell-based; remark: listed apart in the source
[5] = molecular target: T3, Corticotropin-releasing factor receptor 2 (Homo sapiens, UniProt Q13324)
T3 sequence (Q13324 whole entry): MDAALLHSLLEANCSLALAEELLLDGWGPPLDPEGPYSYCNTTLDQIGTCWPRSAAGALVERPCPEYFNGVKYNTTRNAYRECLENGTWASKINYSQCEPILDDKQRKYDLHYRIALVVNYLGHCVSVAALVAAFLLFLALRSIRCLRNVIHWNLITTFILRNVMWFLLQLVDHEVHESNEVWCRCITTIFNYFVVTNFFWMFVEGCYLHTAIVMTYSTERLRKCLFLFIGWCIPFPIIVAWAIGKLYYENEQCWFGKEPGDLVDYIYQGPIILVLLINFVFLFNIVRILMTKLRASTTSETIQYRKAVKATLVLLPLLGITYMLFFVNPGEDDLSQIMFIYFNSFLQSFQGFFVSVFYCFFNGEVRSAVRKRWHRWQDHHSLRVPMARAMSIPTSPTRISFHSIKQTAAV

[6] = molecular target: T4, Corticotropin-releasing factor receptor 1 (Homo sapiens, UniProt P34998)
T4 sequence (P34998 whole entry): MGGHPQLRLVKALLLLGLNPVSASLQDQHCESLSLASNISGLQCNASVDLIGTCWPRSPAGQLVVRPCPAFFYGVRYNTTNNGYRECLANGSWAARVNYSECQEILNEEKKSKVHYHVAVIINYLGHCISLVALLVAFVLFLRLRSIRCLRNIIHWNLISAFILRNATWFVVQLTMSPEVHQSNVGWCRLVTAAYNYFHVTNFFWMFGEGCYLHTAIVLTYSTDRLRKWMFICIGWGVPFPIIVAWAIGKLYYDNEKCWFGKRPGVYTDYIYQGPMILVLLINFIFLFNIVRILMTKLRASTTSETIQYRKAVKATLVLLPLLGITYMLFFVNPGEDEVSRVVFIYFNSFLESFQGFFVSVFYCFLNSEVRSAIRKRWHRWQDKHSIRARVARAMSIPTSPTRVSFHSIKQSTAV

[7] = molecular target: Beta-3 adrenergic receptor (Homo sapiens, UniProt P13945)
[8] = molecular target: Voltage-dependent N-type calcium channel subunit alpha-1B (Rattus norvegicus, UniProt Q02294); assay type: functional
Voltage-dependent N-type calcium channel subunit alpha-1B, sequence (Q02294 whole entry): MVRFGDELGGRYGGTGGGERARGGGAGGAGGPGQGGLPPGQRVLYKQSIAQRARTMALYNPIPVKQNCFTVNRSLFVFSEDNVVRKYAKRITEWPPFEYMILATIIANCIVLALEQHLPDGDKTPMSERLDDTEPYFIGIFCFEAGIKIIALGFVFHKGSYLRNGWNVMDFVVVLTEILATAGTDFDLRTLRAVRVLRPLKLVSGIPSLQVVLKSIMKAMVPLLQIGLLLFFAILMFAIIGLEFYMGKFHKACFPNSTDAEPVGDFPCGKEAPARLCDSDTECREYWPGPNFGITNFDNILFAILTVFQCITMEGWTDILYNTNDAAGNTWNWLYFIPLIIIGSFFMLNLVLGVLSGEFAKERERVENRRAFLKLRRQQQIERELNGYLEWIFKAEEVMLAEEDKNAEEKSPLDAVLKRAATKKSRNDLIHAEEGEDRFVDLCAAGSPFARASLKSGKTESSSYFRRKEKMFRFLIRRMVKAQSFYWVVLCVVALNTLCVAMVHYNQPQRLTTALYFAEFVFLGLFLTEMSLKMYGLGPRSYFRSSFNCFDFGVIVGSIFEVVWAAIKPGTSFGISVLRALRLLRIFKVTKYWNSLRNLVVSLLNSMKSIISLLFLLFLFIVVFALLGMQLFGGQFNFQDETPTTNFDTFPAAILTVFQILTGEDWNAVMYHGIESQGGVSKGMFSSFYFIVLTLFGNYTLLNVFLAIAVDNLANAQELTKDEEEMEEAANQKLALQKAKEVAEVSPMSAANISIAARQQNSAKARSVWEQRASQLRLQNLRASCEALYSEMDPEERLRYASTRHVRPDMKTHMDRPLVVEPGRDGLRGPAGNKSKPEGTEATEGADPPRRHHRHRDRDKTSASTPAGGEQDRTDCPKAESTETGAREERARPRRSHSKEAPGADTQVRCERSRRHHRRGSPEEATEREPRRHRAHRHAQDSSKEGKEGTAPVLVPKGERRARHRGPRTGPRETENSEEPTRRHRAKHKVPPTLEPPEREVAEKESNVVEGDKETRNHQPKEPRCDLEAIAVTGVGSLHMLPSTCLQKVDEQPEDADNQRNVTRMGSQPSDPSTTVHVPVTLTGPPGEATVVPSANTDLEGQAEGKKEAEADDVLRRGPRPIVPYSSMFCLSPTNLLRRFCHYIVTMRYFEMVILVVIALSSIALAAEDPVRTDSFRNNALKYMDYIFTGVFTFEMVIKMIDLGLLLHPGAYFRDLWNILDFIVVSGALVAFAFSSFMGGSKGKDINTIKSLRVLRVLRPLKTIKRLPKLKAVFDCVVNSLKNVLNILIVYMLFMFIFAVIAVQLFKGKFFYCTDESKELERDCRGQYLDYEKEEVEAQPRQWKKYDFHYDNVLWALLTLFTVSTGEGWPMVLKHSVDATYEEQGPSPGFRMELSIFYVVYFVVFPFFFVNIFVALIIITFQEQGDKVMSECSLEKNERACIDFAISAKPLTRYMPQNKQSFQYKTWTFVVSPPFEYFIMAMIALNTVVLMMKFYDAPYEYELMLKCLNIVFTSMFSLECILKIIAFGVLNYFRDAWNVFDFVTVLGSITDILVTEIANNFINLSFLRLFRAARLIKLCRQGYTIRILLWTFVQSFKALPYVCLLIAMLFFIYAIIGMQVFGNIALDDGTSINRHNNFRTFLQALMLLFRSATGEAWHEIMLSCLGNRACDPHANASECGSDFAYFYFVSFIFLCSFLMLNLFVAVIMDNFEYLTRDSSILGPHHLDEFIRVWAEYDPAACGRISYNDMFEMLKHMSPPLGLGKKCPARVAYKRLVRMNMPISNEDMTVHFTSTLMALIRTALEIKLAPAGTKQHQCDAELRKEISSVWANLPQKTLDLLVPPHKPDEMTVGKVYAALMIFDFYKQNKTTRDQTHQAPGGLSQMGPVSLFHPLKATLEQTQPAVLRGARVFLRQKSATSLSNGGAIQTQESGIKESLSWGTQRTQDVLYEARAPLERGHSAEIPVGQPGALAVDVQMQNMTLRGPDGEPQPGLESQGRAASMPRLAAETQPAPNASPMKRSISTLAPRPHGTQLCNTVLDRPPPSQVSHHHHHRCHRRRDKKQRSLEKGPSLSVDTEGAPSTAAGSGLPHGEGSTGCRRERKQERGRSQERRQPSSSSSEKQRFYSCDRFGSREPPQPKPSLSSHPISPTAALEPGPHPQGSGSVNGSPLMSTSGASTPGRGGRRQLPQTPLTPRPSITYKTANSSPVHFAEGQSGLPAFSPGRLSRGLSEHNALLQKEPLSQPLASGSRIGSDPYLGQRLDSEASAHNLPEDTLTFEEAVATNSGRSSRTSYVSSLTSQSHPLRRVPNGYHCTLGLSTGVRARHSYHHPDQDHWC

[9] = molecular target: Glucagon receptor (Homo sapiens, UniProt P47871)
Glucagon receptor, sequence (P47871 whole entry): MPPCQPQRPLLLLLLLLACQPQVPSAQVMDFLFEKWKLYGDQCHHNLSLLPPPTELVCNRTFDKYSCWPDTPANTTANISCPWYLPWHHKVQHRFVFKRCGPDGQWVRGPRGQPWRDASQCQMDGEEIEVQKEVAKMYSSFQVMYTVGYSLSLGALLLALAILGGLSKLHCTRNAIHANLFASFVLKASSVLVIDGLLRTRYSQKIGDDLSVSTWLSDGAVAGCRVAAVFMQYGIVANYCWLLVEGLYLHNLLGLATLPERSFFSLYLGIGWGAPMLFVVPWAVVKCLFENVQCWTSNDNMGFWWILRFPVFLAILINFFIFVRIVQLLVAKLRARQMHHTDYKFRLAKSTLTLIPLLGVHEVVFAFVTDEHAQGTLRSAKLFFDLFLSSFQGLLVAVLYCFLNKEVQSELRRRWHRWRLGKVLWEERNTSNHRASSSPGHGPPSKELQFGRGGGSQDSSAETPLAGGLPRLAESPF

[10] = molecular target: Neurotensin receptor type 1 (Homo sapiens, UniProt P30989)
[11] = molecular target: T5, Endothelin receptor type B (Homo sapiens, UniProt P24530)
T5 sequence (P24530 whole entry): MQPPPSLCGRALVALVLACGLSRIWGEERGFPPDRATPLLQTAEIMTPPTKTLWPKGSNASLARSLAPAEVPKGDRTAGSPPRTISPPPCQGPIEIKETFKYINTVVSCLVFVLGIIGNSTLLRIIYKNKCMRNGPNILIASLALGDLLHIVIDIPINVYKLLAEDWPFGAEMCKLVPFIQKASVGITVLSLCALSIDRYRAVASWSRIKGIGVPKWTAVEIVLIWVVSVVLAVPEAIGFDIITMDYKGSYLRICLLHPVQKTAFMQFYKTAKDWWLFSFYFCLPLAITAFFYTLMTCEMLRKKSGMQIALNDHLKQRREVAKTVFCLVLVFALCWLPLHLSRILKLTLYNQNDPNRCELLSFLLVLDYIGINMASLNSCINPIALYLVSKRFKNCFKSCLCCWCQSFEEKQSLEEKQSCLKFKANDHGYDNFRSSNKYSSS

[12] = molecular target: Histamine H2 receptor (Homo sapiens, UniProt P25021)
[13] = molecular target: T6, Histamine H1 receptor (Homo sapiens, UniProt P35367); assay type: functional, cell-based
[14] = molecular target: T6, Histamine H1 receptor; assay type: functional, cell-based; remark: listed apart in the source
[15] = molecular target: Substance-P receptor (Homo sapiens, UniProt P25103)
[16] = molecular target: T7, D(4) dopamine receptor (Homo sapiens, UniProt P21917)
T7 sequence (P21917 whole entry): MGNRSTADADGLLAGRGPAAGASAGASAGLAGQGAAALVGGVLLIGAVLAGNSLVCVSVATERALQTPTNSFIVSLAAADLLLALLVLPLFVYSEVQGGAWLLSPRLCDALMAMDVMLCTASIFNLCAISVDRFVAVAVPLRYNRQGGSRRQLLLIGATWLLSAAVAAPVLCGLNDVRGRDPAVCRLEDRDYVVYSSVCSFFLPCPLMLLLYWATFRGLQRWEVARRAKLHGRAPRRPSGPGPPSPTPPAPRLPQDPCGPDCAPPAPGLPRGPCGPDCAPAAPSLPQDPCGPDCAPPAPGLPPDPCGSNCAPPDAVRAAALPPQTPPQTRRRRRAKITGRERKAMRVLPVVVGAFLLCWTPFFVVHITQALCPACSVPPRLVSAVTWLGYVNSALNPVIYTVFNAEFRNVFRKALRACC
Further: assay procedure not described here.

| SMILES | AC50 [1] [µM] | AC50 [2] [µM] | AC50 [3] [µM] | AC50 [4] [µM] | AC50 [5] [µM] | AC50 [6] [µM] | AC50 [7] [µM] | AC50 [8] [µM] | AC50 [9] [µM] | AC50 [10] [µM] | AC50 [11] [µM] | AC50 [12] [µM] | AC50 [13] [µM] | AC50 [14] [µM] | AC50 [15] [µM] | AC50 [16] [µM] |
| --- | --- | --- | --- | --- | --- | --- | --- | --- | --- | --- | --- | --- | --- | --- | --- | --- |
| C[N+]12CCC(CC1)C(OC(=O)C(O)(c1ccccc1)c1ccccc1)C2 (stereo unspecified) | 0.0032 | – | – | – | – | – | – | – | – | – | – | – | – | – | – | – |
| CO/N=C(\C(=O)N[C@@H]1C(=O)N2C(C(=O)O)=C(CSc3nc(=O)c(=O)[nH]n3C)CS[C@H]12)c1csc(N)n1 [CEFTRIAXONE] | – | > 30 | > 50 | > 30 | – | – | – | – | – | – | – | – | – | – | – | – |
| COc1cc(N)c(Cl)cc1C(=O)NC1CCN(CCCOc2ccc(F)cc2)CC1OC (stereo unspecified) [CISAPRIDE] | > 10 | – | > 50 | – | > 30 | > 30 | > 30 | > 10 | > 30 | > 30 | > 30 | > 10 | – | – | – | – |
| CC(CN(C)C)C(C)(O)Cc1ccc(Cl)cc1 (stereo unspecified) [CLOBUTINOL] | – | – | – | – | – | – | – | – | – | – | – | – | > 30 | > 30 | – | – |
| CCOC(=O)C(C)(C)Oc1ccc(Cl)cc1 [CLOFIBRATE] | > 10 | – | – | – | > 30 | > 30 | > 30 | > 10 | > 30 | > 30 | > 30 | – | – | – | – | – |
| CCCCOc1ccc(C(=O)CCN2CCCCC2)cc1 [DYCLONINE] | 2.81 | – | – | – | > 30 | > 30 | > 30 | > 10 | > 30 | > 30 | > 30 | 3.13 | > 30 | > 30 | > 10 | 4.11 |
| CC(C)NC[C@H](O)COc1ccc(CC(N)=O)cc1 [ESATENOLOL] | – | – | – | – | > 30 | > 30 | – | > 10 | > 30 | > 30 | > 30 | > 10 | – | – | > 10 | > 10 |
| NNC(=O)c1ccncc1 [ISONIAZID] | – | – | – | – | > 30 | > 30 | > 30 | > 10 | > 30 | > 30 | > 30 | > 10 | – | – | > 10 | > 10 |
| COc1ccc(CN2CCN(C(c3ccc(F)cc3)c3ccc(F)cc3)CC2)c(OC)c1OC [LOMERIZINE] | – | – | 16 | – | – | – | – | – | – | – | – | – | – | – | – | – |
| O=C1Nc2ccc(Cl)cc2C(c2ccccc2Cl)=NC1O (stereo unspecified) [LORAZEPAM] | > 10 | – | – | – | > 30 | > 30 | > 30 | > 10 | > 30 | > 30 | > 30 | > 10 | – | – | > 10 | > 10 |
| Cc1ccnc2c1NC(=O)c1cccnc1N2C1CC1 [NEVIRAPINE] | > 10 | – | – | – | > 30 | > 30 | > 30 | > 10 | > 30 | > 30 | > 30 | > 10 | – | – | > 10 | > 10 |
| O=C(NCCO[N+](=O)[O-])c1cccnc1 [NICORANDIL] | – | > 30 | – | > 30 | – | – | – | – | – | – | – | – | > 30 | > 30 | – | – |
| CO[C@H]1C[C@H](O[C@H]2CC[C@@]3(C)[C@H](CC[C@@H]4[C@@H]3CC[C@]3(C)[C@@H](C5=CC(=O)OC5)[C@@H](OC(C)=O)C[C@]43O)C2)O[C@@H](C)[C@@H]1O [OLEANDRIN] | – | > 30 | – | > 30 | – | – | – | – | – | – | – | – | – | – | – | – |
| O=c1[nH]c2ccccc2n1CCCN1CCN(C(c2ccccc2)c2ccccc2)CC1 [OXATOMIDE] | – | > 30 | – | > 30 | – | – | – | – | – | – | – | – | 0.69 | > 30 | – | – |
| COc1cc2[nH]c(C)c(CCN3CCN(c4ccccc4)CC3)c2cc1OC [OXYPERTINE] | – | > 30 | – | > 30 | – | – | – | – | – | – | – | – | 0.645 | > 30 | – | – |
| Fc1ccc([C@@H]2CCNC[C@H]2COc2ccc3c(c2)OCO3)cc1 [PAROXETINE] | – | – | 25.4 | – | > 30 | > 30 | > 30 | > 10 | > 30 | > 30 | > 30 | – | – | – | – | > 10 |
| c1ccc(C2(N3CCCCC3)CCCCC2)cc1 [PHENCYCLIDINE] | – | > 30 | – | > 30 | – | – | – | – | – | – | – | – | – | – | – | – |
| COc1cc(C(=O)OCc2cccc(COC(=O)c3cc(OC)c(OC)c(OC)c3)n2)cc(OC)c1OC [PIROZADIL] | – | > 30 | – | > 30 | – | – | – | – | – | – | – | – | > 30 | > 30 | – | – |
| CCC(=O)O[C@](Cc1ccccc1)(c1ccccc1)[C@H](C)CN(C)C [PROPOXYPHENE] | > 10 | – | – | – | > 30 | > 30 | > 30 | > 10 | > 30 | > 30 | > 30 | 4.95 | – | – | > 10 | > 10 |
| O=c1c(O)c(-c2ccc(O)c(O)c2)oc2cc(O)cc(O)c12 [QUERCETIN] | > 10 | – | – | – | > 30 | > 30 | – | > 10 | > 30 | > 30 | > 30 | > 10 | – | – | – | – |
| CCN1CCCC1CNC(=O)c1cc(S(=O)(=O)CC)ccc1OC (stereo unspecified) [SULTOPRIDE] | – | > 30 | – | > 30 | – | – | – | – | – | – | – | – | > 30 | > 30 | – | – |
| CCOC(=O)c1ccc(C#Cc2ccc3c(c2)C(C)(C)CCS3)nc1 [TAZAROTENE] | – | – | – | – | – | – | – | > 10 | – | – | – | – | – | – | – | – |
| CCOC(=O)[C@@H](N)Cc1ccc(-c2cc(O[C@H](c3ccc(Cl)cc3-n3ccc(C)n3)C(F)(F)F)nc(N)n2)cc1 [TELOTRISTAT ETHYL] | – | > 30 | > 1 | > 30 | – | – | – | – | – | – | – | – | – | – | – | – |
| CCCCCCCC(=O)CC[C@@H]1[C@@H](C/C=C\CCCC(=O)OC(C)C)[C@@H](O)C[C@H]1O [UNOPROSTONE ISOPROPYL] | – | – | 27 | – | – | – | – | – | – | – | – | – | – | – | – | – |
